PMC9058666 (RSC Advances, 2020)

Assays:
[1] = SD, rat, in vivo, po
in vivo = details: SD, rat, po, 50 mg/kg

Question: With O=c1[nH]cc(F)c(=O)[nH]1 [5-FU, 5-Fluorouracil] as the compound, how does the “Cmax of 5-FU (from Fig. 7, mean plasma concentration-time profile)” value [1] read?
Answer: 20000 ng/mL

Question: What about the “time at which Cmax was reached (from Fig. 7)” value [1] of the same compound?
Answer: 0.5 h

Question: And the AUC(0-inf) (in vivo)?
Answer: 54600 ± 15000 ng·h/mL

Question: And the AUC(0-t) (in vivo)?
Answer: 50400 ± 10800 ng·h/mL

Question: And the Cmax (in vivo)?
Answer: 21000 ± 1980 ng/mL

Question: And the Tmax (in vivo)?
Answer: 0.667 ± 0.289 h

Question: And the half-life (in vivo)?
Answer: 1.47 ± 0.449 h
